According to patent US9221809B2 (MERCK SHARP & DOHME CORP., priority 2011, dated 2015):
Where a name gives a salt, the structure may show the parent alone.

These compounds were tested against IRAK4 (Homo sapiens (Human), UniProt Q9NWZ3) (assay: IRAK4 kinase activity, IMAP fluorescence polarization assay). Conditions: 100 μM ATP, 0.5 nM GST tagged IRAK4; read-out: IRAK4 IC50.
Type: biochemical
How it was run: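 GST-tagged IRAK4 at 0.5 nM phosphorylates 100 nM fluorescent peptide substrate with 100 μM ATP in pH 7.2 Tris buffer containing MgCl2, DTT and Tween 20, 30 min at 25 °C. Reaction stopped with IMAP binding reagent; phosphorylation read as increased fluorescence polarization.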

Sequence of IRAK4 (Q9NWZ3 whole entry): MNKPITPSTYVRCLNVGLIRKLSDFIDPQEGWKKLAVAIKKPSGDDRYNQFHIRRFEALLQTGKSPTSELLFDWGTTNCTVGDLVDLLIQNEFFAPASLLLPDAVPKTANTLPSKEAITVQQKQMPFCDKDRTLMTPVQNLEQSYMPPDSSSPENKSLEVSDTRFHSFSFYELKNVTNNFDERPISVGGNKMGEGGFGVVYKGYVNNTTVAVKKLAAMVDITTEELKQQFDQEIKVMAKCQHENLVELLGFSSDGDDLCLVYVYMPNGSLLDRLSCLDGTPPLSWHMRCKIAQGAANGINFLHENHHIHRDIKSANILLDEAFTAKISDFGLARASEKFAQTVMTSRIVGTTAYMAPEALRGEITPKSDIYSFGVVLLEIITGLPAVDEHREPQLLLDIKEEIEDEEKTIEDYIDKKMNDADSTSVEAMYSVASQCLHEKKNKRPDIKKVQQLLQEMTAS

| SMILES | IC50 |
| --- | --- |
| O=c1[nH]c(N[C@@H]2C[C@H](CO)[C@@H](O)[C@H]2O)c(-c2nc3ccccc3s2)c(=O)[nH]1 [Example 7, 5-(Benzo[d]thiazol-2-yl)-6-((1R,2S,3R,4R)-2,3-dihydroxy-4-(hydroxymethyl)cyclopentylamino)pyrimidine-2,4(1H,3H)-dione.HCl] | 1490 nM |
| CN1CCN(c2nc(N[C@@H]3CCCNC3)c(-c3ccc4ccccc4n3)c(=O)[nH]2)CC1 [Example 116, (R)-2-(4-methylpiperazin-1-yl)-6-(piperidin-3-ylamino)-5-(quinolin-2-yl)pyrimidin-4(3H)-one.HCl] | 97 nM |
| Cc1cc2sc(-c3c(N[C@@H]4C[C@H](CO)[C@@H](O)[C@H]4O)nc(N4CCOCC4)[nH]c3=O)nc2c(C)n1 [Example 57, 6-(((1R,2S,3R,4R)-2,3-Dihydroxy-4-(hydroxymethyl)cyclopentyl)amino)-5-(4,6-dimethylthiazolo[4,5-c]pyridin-2-yl)-2-morpholinopyrimidin-4(3H)-one.HCl] | 923 nM |
| O=c1[nH]c(NC2CCCC2)nc(N[C@@H]2C[C@H](CO)[C@@H](O)[C@H]2O)c1-c1nc2ccccc2s1 [Example 4, 5-(Benzo[d]thiazol-2-yl)-2-(cyclopentylamino)-6-((1R,2S,3R,4R)-2,3-dihydroxy-4-(hydroxymethyl)cyclopentylamino)pyrimidin-4(3H)-one.HCl] | 92 nM |
| O=c1[nH]c(NC2COC2)nc(N[C@@H]2C[C@H](CO)[C@@H](O)[C@H]2O)c1-c1nc2ccccc2s1 [Example 11, 5-(Benzo[d]thiazol-2-yl)-6-((1R,2S,3R,4R)-2,3-dihydroxy-4-(hydroxymethyl)cyclopentylamino)-2-(oxetan-3-ylamino)pyrimidin-4(3H)-one.HCl] | 892 nM |
| N[C@H]1CCCC[C@H]1Nc1cccc2sc(-c3c(N[C@@H]4CCCNC4)nc(N4CCOCC4)[nH]c3=O)nc12 (racemic) [Example 353, 5-[4-[(cis, rac)-(2-aminocyclohexyl)amino]-1,3-benzothiazol-2-yl]-2-(morpholin-4-yl)-6-[[(3R)-piperidin-3-yl]amino]-3,4-dihydropyrimidin-4-one] | 24 nM |

Same assay, conditions: 100 μM ATP; read-out: IC50

| SMILES | IC50 |
| --- | --- |
| CN1CCC2(CCN(c3nc(N[C@@H]4CCCNC4)c(-c4nc5ccccc5s4)c(=O)[nH]3)C2)C1 (stereo partly drawn) [Example 325, 5-(1,3-benzothiazol-2-yl)-2-[7-methyl-2,7-diazaspiro[4.4]nonan-2-yl]-6-[[(3R)-piperidin-3-yl]amino]-3,4-dihydropyrimidin-4-one] | 24 nM |
| O=c1[nH]c(C2CCN(c3cccnc3)CC2)nc(N[C@@H]2CCCNC2)c1-c1nc2ccccc2s1 [Example 245, (R)-5-(benzo[d]thiazol-2-yl)-6-(piperidin-3-ylamino)-2-(1-(pyridin-3-yl)piperidin-4-yl)pyrimidin-4(3H)-one] | 89 nM |
| CC(=O)N1CCC2(CCN(c3nc(N[C@@H]4CCCNC4)c(-c4nc5ccccc5s4)c(=O)[nH]3)C2)C1 (stereo partly drawn) [Example 326, 2-[7-acetyl-2,7-diazaspiro[4.4]nonan-2-yl]-5-(1,3-benzothiazol-2-yl)-6-[[(3R)-piperidin-3-yl]amino]-3,4-dihydropyrimidin-4-one] | 13 nM |
| O=c1[nH]c(N2CCOCC2)nc(N[C@@H]2CCCNC2)c1-c1ccc(C2CC2)cn1 [Example 224, (R)-5-(5-cyclopropylpyridin-2-yl)-2-morpholino-6-(piperidin-3-ylamino)pyrimidin-4(3H)-one] | 512 nM |
| CN(C)CCNc1nc(N2CCOCC2)[nH]c(=O)c1-c1ccc2ccccc2n1 [Example 272, 6-[[2-(dimethylamino)ethyl]amino]-2-(morpholin-4-yl)-5-(quinolin-2-yl)-3,4-dihydropyrimidin-4-one] | 1600 nM |
| O=c1[nH]c(N2CCC3(CCN(Cc4ccccc4)C3)C2)nc(N[C@@H]2CCCNC2)c1-c1nc2ccccc2s1 (stereo partly drawn) [Example 327, 5-(1,3-benzothiazol-2-yl)-2-[7-benzyl-2,7-diazaspiro[4.4]nonan-2-yl]-6-[[(3R)-piperidin-3-yl]amino]-3,4-dihydropyrimidin-4-one; trifluoroacetic acid] | 27 nM |
| CCS(=O)(=O)N1CCC(c2nc(N[C@@H]3CCCNC3)c(-c3nc4ccccc4s3)c(=O)[nH]2)CC1 [Example 236] | 550 nM |

More lines, now with the values ahead:

| IC50 | SMILES |
| --- | --- |
| 140 nM | CC1CCCN(c2nc(N[C@@H]3CCCNC3)c(-c3nc4ccccc4s3)c(=O)[nH]2)C1 (stereo partly drawn) [Example 290, 5-(benzo[d]thiazol-2-yl)-2-(3-methylpiperidin-1-yl)-6-((R)-piperidin-3-ylamino)pyrimidin-4(3H)-one] |
| 450 nM | CC(=O)N1CCN(c2nc(N[C@@H]3CCCNC3)c(-c3nc4ccccc4s3)c(=O)[nH]2)CC1 [Example 316, 2-(4-acetylpiperazin-1-yl)-5-(1,3-benzothiazol-2-yl)-6-[[(3R)-piperidin-3-yl]amino]-3,4-dihydropyrimidin-4-one] |
| 74 nM | NC(=O)C1CCN(c2nc(N[C@@H]3CCCNC3)c(-c3nc4ccccc4s3)c(=O)[nH]2)CC1 [Example 318, 1-[5-(1,3-benzothiazol-2-yl)-6-oxo-4-[[(3R)-piperidin-3-yl]amino]-1,6-dihydropyrimidin-2-yl]piperidine-4-carboxamide hydrochloride] |

Same assay, conditions: 100 μM ATP; read-out: IRAK4 IC50

| SMILES | IC50 |
| --- | --- |
| O=c1[nH]c(N2CCN(c3nccs3)CC2)nc(N[C@@H]2CCCNC2)c1-c1nc2ccccc2s1 [Example 149, (R)-5-(benzo[d]thiazol-2-yl)-6-(piperidin-3-ylamino)-2-(4-(thiazol-2-yl)piperazin-1-yl)pyrimidin-4(3H)-one] | 12 nM |
| Cc1nonc1N1CCN(c2nc(N[C@@H]3CCCNC3)c(-c3nc4ccccc4s3)c(=O)[nH]2)CC1 [Example 139, (R)-5-(benzo[d]thiazol-2-yl)-2-(4-(4-methyl-1,2,5-oxadiazol-3-yl)piperazin-1-yl)-6-(piperidin-3-ylamino)pyrimidin-4(3H)-one] | 15 nM |

Further lines, results first:

| IC50 | SMILES |
| --- | --- |
| 15 nM | O=c1[nH]c(N2CC[C@H](CO)C2)nc(N[C@@H]2CCCNC2)c1-c1ccc2ccccc2n1 [Example 180, 2-((S)-3-(hydroxymethyl)pyrrolidin-1-yl)-6-((R)-piperidin-3-ylamino)-5-(quinolin-2-yl)pyrimidin-4(3H)-one] |
| 57 nM | O=c1[nH]c(N2CCOC(CCO)C2)nc(N[C@@H]2CCCNC2)c1-c1nc2ccccc2s1 (stereo partly drawn) [Example 129, 5-(benzo[d]thiazol-2-yl)-2-(2-(2-hydroxyethyl)morpholino)-6-((R)-piperidin-3-ylamino)pyrimidin-4(3H)-one] |
| 20 nM | O=c1[nH]c(N2CCC(O)C2)nc(N[C@@H]2CCCNC2)c1-c1ccc2ccccc2n1 (stereo partly drawn) [Example 167, 2-(3-hydroxypyrrolidin-1-yl)-6-((R)-piperidin-3-ylamino)-5-(quinolin-2-yl)pyrimidin-4(3H)-one] |
| 16 nM | O=c1[nH]c(N2CCN(c3ccccc3F)CC2)nc(N[C@@H]2CCCNC2)c1-c1nc2ccccc2s1 [Example 146, (R)-5-(benzo[d]thiazol-2-yl)-2-(4-(2-fluorophenyl)piperazin-1-yl)-6-(piperidin-3-ylamino)pyrimidin-4(3H)-one] |

Same assay, conditions: unit inferred; 100 μM ATP; read-out: IRAK4 IC50

| SMILES | IC50 |
| --- | --- |
| O=c1[nH]c(N2CCCN(Cc3nccs3)CC2)nc(N[C@@H]2C[C@H](CO)[C@@H](O)[C@H]2O)c1-c1nc2ccccc2s1 [Example 75, 5-(benzo[d]thiazol-2-yl)-6-((1R,2S,3R,4R)-2,3-dihydroxy-4-(hydroxymethyl)cyclopentylamino)-2-(4-(thiazol-2-ylmethyl)-1,4-diazepan-1-yl)pyrimidin-4(3H)-one] | 226 nM |
